The source of these data is patent US20240293289A1, “Multifunctional Dental Adhesives and Uses Thereof” (University of Maryland, Baltimore, priority 2023, published 2024).

For the assay, the target named is MMP-9 (Homo sapiens, UniProt P14780). Briefly: SENSOLYTE Generic MMP Assay Kit, MMP inhibition. Type of assay: biochemical. Here is the method: For the MMPs inhibition assay, SENSOLYTE Generic MMP Assay Kit Colorimetric was used. The MMP thiopeptide substrate solution was diluted to 0.2 mM with the supplied assay buffer in a 1:50 volume ratio. A 96-well plate was used for the assay using four replicates per group. In each well, 40 μL of MMP-9 (20 ng/well), 10 μL of CHX (1 mg/mL) at serial dilutions, and 50 μL of thiopeptide substrate solution were mixed. […] was measured using a plate reader (SpectraMax M5, Molecular Devices, Sunnyvale, CA, USA) at Ex/Em-490 nm/540 nm with a kinetic mode every 5 min for 60 min (20). The substrate control group was set as a background, where its absorbance was subtracted from other wells. The percentage of MMP inhibition was calculated according to equation 5: […]
Sequence of MMP-9 (P14780 94-707): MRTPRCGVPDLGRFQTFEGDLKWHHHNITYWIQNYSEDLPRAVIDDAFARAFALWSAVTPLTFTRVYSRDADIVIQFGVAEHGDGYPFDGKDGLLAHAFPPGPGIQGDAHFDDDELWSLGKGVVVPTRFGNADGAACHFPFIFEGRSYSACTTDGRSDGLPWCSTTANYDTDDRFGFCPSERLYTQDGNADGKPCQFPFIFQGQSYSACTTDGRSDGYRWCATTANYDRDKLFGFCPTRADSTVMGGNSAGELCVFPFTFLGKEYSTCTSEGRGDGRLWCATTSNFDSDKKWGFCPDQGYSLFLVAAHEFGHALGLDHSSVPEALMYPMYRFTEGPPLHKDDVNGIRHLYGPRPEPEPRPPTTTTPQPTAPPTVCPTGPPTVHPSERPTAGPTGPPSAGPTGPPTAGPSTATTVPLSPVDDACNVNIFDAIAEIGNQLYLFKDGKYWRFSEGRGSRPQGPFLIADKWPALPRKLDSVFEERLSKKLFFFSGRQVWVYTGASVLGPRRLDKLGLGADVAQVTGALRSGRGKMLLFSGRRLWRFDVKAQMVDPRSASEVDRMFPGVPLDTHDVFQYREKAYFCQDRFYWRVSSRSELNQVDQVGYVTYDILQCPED

One may read the inhibition as how much of the control response was suppressed. The compound `[H]/N=C(\N/C(=N/[H])NCCCCCCNC(=N)NC(=N)Nc1ccc(Cl)cc1)Nc1ccc(Cl)cc1` [CHX, Chlorhexidine] returned an inhibition at 1000 µg/mL (1 mg/mL CHX) of 99.8%. For the same compound, the “inhibition of MMP-9” value (less than 1 mg/mL of CHX) is reported as “substantial inhibition”.
